From US11974983B2 (Duke University, priority 2018, dated 2024)

Assays:
[1] = tested on: wild-type ERα and ERα LBD mutants Y537S, Y537N, Y537C, D538G; test: ERE-luciferase reporter assay in Caov2 and SKBR3 cells (statements on all receptors); assay type: cell-based
Description: ExSite mutagenesis was performed using the corresponding primers as summarized in Table 1 below on a pENTR2B ERα WT construct using Pfu ultra taq polymerase. The primers were PNK phosphorylated. Following PCR amplification, the products were digested with DpnI at 37° C. for 1 hr, followed by overnight ligation at 16° C. Ligated products were transformed into DH5α bacterial cells and grown on kanamycin resistant plates. The pENTR clones were verified by sequencing and then swapped into the pcDNA-DEST vector using the Gateway system (Invitrogen) for expression analysis.
Caov2 ovarian carcinoma cells were grown in RPMI-1640 media (Gibco) supplemented with 8% Fetal Bovine Serum (FBS), Sodium Pyruvate (NaPyr) and non-essential amino acids (NEAA) and passaged every 2-3 days. SKBR3 breast adenocarcinoma cells were grown in DMEM media (Gibco) supplemented with 8% Fetal Bovine Serum (FBS), Sodium Pyruvate (NaPyr) and non-essential amino acids (NEAA) and passaged every 2-3 days. […]
Caov2 cells were co-transfected with the 7X-TK-ERE-TATA luciferase reporter gene (Nagel et al., Endocrinology 142(11): 4721-4728 (2001)) and expression constructs for either wild-type or mutant receptors using Fugene transfection reagent (Promega). […] Following 24 hours of treatment, cells were lysed and the luciferase and β-gal assays were performed as described previously (Norris et al., J Biol Chem 270(39): 22777-22782 (1995)) and the plates were read on the Fusion α-FP HT plate reader (PerkinElmer Life Sciences).
See Jeselsohn et al., Nature Reviews Clinical Oncology 12(10): 573-583 (2015); Jeselsohn et al., Clinical Cancer Research 20(7): 1757-1767 (2014); Robinson et al., Nature Genetics 45(12): 1446-1451(2013); Thomas and Gustafsson, Trends in Endocrinology and Metabolism 26(9): 467-476 (2015); and Toy et al., Nature Genetics 45(12): 1439-1445 (2013). The activity of these mutants was evaluated in a reconstituted estrogen response element (ERE)-luciferase reporter assay in Caov2 ovarian carcinoma cells and SKBR3 breast adenocarcinoma cells. […]

[2] = tested on: MCF7 Y537S; test: Mammary intraductal (MIND) xenograft model, MCF7 Y537S; assay type: in vivo, NSG mice; conditions: MCF7 Y537S; fulvestrant 5 mg once per week; after 70 days
Description: (§1) MCF7 cells were engineered with CRISPR/Cas9 to express ERα with Y537S and D538G mutations. To mimic the natural environment of infiltrating ductal ERα^+ breast cancers, NSG™ mice were injected, via the nipple in the inguinal mammary glands, with three MCF7 cell variants: wild type MCF7 cells (MCF7 WT), MCF7 cells expressing Y537S mutant ERα (MCF7 Y537S), and MCF7 cells expressing D538G mutant ERα (MCF7 D538G), respectively. Prior to injection, the MCF7 cells were labeled with a luciferase reporter to monitor tumor growth in vivo using a Xenogen IVIS imager. […] FIG. 4 summarizes the experimental design.

[3] = tested on: MCF7 WT; test: MIND xenograft model, combination therapies, MCF7 WT; assay type: in vivo, mice
Description: MCF7 WT and MCF7 Y537S MIND xenograft model were generated as described in Example 3. […] FIG. 20 summarizes the experimental design.

[4] = tested on: MCF7 WT; test: Mammary intraductal (MIND) xenograft model, MCF7 WT; assay type: in vivo, NSG mice; conditions: MCF7 WT mice; fulvestrant 5 mg once per week subcutaneous
Description: as §1

SMILES | transcriptional activity, response to E2 [1] | lung metastasis [2] | tumor growth monitored by total flux ([3]; MCF7 WT mice, fulvestrant alone 5 mg/mouse once per week) | tumor growth by tumor volume ([3]; MCF7 WT, day 36 and day 43 of treatment) | tumor growth monitored by total flux [4]
C[C@]12CC[C@@H]3c4ccc(O)cc4CC[C@H]3[C@@H]1CC[C@@H]2O [E2, 17-β estradiol] | not responsive to E2 activation | – | – | – | –
C[C@]12CC[C@@H]3c4ccc(O)cc4C[C@@H](CCCCCCCCC[S+]([O-])CCCC(F)(F)C(F)(F)F)[C@H]3[C@@H]1CC[C@@H]2O (some centres unmarked) [fulvestrant] | – | did not have a significant effect | the most effective in inhibiting tumor growth | the most effective | the most effective in inhibiting tumor growth
